As a reminder, the inhibition is the relative decrease from the control value, in per cent. By IC50 is commonly meant the midpoint of a concentration-inhibition curve. Read a high IC50 as a need for much substance.

Molecules are shown by their SMILES.

Here are results for three molecules from patent US20100240709A1, “Sulfoximine Derivatives as p38 MAP Kinase Inhibitors” (priority 2005, published 2010).

For assay [1], the system named is TNF α. In words: Ex-vivo human whole blood, LPS-induced TNF-α by ELISA. It counts as cell-based. Conditions: LPS 1 ng/ml. How it is done: (§1) Blood was collected by venous puncture from 3 different volunteers in separate heparinized (100 IU/ml) tubes and incubated in the presence of 10 μM and 100 μM of test compounds for 1 hr at 37° C. Following this LPS (1 ng/ml final concentration) was added and incubation continued for 5 hr. The reaction was terminated by placing the samples on ice for 10 min. The samples were then centrifuged, plasma separated and stored at −70° C. until the analysis of TNF-α and IL-1β by ELISA: […]
In general terms: In an ELISA, binding on a coated surface is turned into a signal by an enzyme label.

Assay [2] addresses p38 MAP kinase (Homo sapiens, UniProt Q16539). Briefly: p-38 MAPK Enzyme assay (in vitro ELISA, ATF-2 substrate). The class given is biochemical. The note with it: ELISA detection of phosphorylated ATF-2. From the text:
The compounds were screened using an in vitro ELISA assay for p38 MAP kinase activity. Activated p38 MAP kinase during the course of its biological function phosphorylates its substrates. The assay was based on the detection of a phosphorylated p38 MAP kinase substrate using ATF-2 as the biological substrate. More the activity of the p38 MAP kinase inhibitor in the reaction mixture less will be the amount of active p38 MAP kinase available to phosphorylate ATF-2. So, lower OD value will indicate the higher inhibition of p38 MAP kinase by the specific p38 MAP kinase inhibitor. The quantitation of phosphorylated ATF-2 at varying concentrations of p38 MAP kinase inhibitor was used to determine the IC50 by fitting the results to a logistic dose-response program (Graphpad Prism, CA). IC50 was defined as the concentration of compound required to achieve 50% inhibition of p38 MAP kinase activity.

The subject of assay [3] is IL-1 β. Briefly: Ex-vivo human whole blood, LPS-induced IL-1β by ELISA. The class given is cell-based. Conditions: LPS 1 ng/ml. On the procedure:
as §1

For assay [4], the system named is TNF α. In words: In vivo LPS induced TNF α inhibition in Balb/c mice. Conditions: 10 mg/kg orally, 30 minutes prior to i.v. LPS (50 μg/kg); blood 60 minutes after LPS. On the procedure:
Balb/c mice were kept for acclimatization in the observation room for two days before the experiment. On the day of the experiment, animals were weighed and the test compounds to be administered calculated at a 10 mg/kg body weight basis in a total volume of 2 ml. Control groups received vehicle alone while the treatment groups received the test compound, both given orally, 30 minutes prior to intravenous injection of LPS (50 μg/kg). Blood was collected 60 minutes after the LPS injection from retro orbital plexus, the serum separated & stored in deep freeze till the estimation of TNF by ELISA method.

Sequence of p38 MAP kinase (Q16539 whole entry): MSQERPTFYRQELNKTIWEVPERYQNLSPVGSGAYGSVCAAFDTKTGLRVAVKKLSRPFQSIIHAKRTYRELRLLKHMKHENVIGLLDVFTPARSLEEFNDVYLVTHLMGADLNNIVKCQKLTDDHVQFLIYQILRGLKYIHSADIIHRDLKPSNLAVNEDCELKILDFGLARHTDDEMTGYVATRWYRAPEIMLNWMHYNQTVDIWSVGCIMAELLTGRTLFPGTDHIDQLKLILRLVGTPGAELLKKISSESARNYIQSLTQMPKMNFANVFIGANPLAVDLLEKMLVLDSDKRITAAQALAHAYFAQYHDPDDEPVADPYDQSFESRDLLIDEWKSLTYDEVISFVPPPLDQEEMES

As to `CCc1nc(-c2ccccc2)c(-c2ccnc(N=S(C)(=O)c3cccc(C)c3)c2)s1` (stereo not drawn) [Example 24, S-Methyl-S-(3-Methylphenyl)-N-[4-{2-ethyl-4-phenyl-thiazol-5-yl}-pyridine]-sulfoximine], the inhibition at 10 µM in assay [1] (Homo sapiens, Conc 10 μM) stood at 7.43%; in assay [3] (Homo sapiens, Conc 10 μM) it was 22.7%. In addition, the inhibition at 100 µM in assay [1] (Homo sapiens, Conc 100 μM) is 69.7%; in assay [3] (Homo sapiens, Conc 100 μM), 81.2%. In assay [2], this molecule displayed an IC50 of 9.8 µM. Besides, in assay [4], the “In vivo LPS induced TNF α inhibition in Balb/c mice TNF α % inhibition (10 mg/kg)” value was found to be 39.3%.
As to `CCc1nc(-c2ccc(F)cc2)c(-c2ccnc(N=S(C)(=O)c3ccc(F)cc3)c2)s1` (single isomer, unassigned; (+)) [Example 44, (+)-S-Methyl-S-4-fluoro-phenyl-N-[4-(2-ethyl-4-(4-fluoro-phenyl)-1,3-thiazol-5-yl)-pyridine-2-yl]-sulfoximine], the entries for the “TNF α % inhibition” value in assay [1] (Conc 10 μM) and in assay [1] (Conc 100 μM) were 32.74% and 95.59%, respectively. The molecule further showed an IC50 in assay [2] of 6.6 µM. For the same molecule, the figures for the “IL-1 β % inhibition” value in assay [3] (Conc 10 μM) and in assay [3] (Conc 100 μM) were 64.82% and 92.36%, respectively. Besides, the “In vivo LPS induced TNF α inhibition in Balb/c mice TNF α % inhibition (10 mg/kg)” value in assay [4] is given as 50.4%.
Turning to `CCc1nc(-c2ccc(F)cc2)c(-c2ccnc(N=S(C)(=O)c3ccc(F)cc3)c2)s1` (single isomer, unassigned; (-)) [Example 43, (−)-S-Methyl-S-4-fluoro-phenyl-N-[4-(2-ethyl-4-(4-fluoro-phenyl)-1,3-thiazol-5-yl)-pyridine-2-yl]-sulfoximine], the “TNF α % inhibition” value in assay [1] (Conc 100 μM) stood at 55.14%. Also, the inhibition at 10 µM in assay [1] (Homo sapiens, Conc 10 μM) came out at 17.8%. The molecule further showed an IC50 in assay [2] of 71 µM. For the same molecule, the “IL-1 β % inhibition” value in assay [3] (Conc 10 μM) stood at 24.62%. Further, 100 µM produced 79.3% inhibition in assay [3] (Homo sapiens, Conc 100 μM). Besides, the “In vivo LPS induced TNF α inhibition in Balb/c mice TNF α % inhibition (10 mg/kg)” value in assay [4] is listed as 49.4%.
